We go through one compound from patent US20240245079A1, “METHOD FOR MANUFACTURING HEATED FOOD” (Nisshin Seifun Welna Inc., priority 2021, published 2024).

A short description of the data set: Method for measuring solubility of metal salt. The note with it: 100 g water at pH 7, 20° C., shaken 1 hour. The procedure: In a flask are placed 100 g of water at pH 7 and 2 g of a metal salt being tested. The flask is tightly closed and shaken in a thermostat at 20° C. for 1 hour. The contents of the flask are filtered to collect the undissolved metal salt, which is dried and weighed. The weight (g) of the undissolved metal salt is subtracted from the original weight (2 g) to obtain the solubility of the metal salt.

For `[O]=[Mg]` [Magnesium oxide], the Solubility is 0.0086 g/100 g water.
